Each structure is given as a SMILES string. ≈ marks a conversion by molar mass, not a printed value. Bounds are passed on as bounds.

Test systems include Escherichia coli IP76-24; Candida krusei IOC 4559; Escherichia coli SBS 363; Micrococcus luteus A270; Carnobacterium mobile; Fusarium oxysporum.
Assay in all cases: ≥ marks a high value that may be exact or a test limit, other limits are often not marked, values filed in µg/mL are converted to µM
Assay [1] concerns Bacillus megaterium ATCC 19213.
Assay [2] has as its system Bacillus subtilis NBRC 3513.
The subject of assay [3] is Enterococcus faecalis NBRC 3989.
Assay [4] concerns Escherichia coli NBRC 12734.
For assay [5], the system named is Klebsiella pneumoniae NBRC 3317.
Assay [6] has as its system Pseudomonas aeruginosa NBRC 3080.
Assay [7] concerns Salmonella typhimurium NBRC 12529.
Assay [8] relates to Serratia marcescens NBRC 3046.
In assay [9] the test system is Staphylococcus aureus NBRC 12732.
For assay [10], the system named is Staphylococcus epidermidis NBRC 12933.
For assay [11], the system named is Aeromonas caviae IP67-16T.
In assay [12] the test system is Aspergillus fumigatus IP1025-70.
The test system of assay [13] is Aspergillus niger IP218-53.
For assay [14], the system named is Candida albicans IP884-65.
In assay [15] the test system is Cryptococcus neoformans IP960-67.
Assay [16] has as its system Enterococcus faecalis IP103214.
In assay [17] the test system is Nocardia brasiliensis IP16-80.
Assay [18] has as its system Saccharomyces cerevisiae IP118079.
The subject of assay [19] is Staphylococcus aureus IP76-25.
Assay [20] has as its system Trichophyton simii IP1063-74.
Assay [21] concerns Bacillus subtilis PCI 219.
Assay [22] concerns Escherichia coli NIHJ JC-2.
Assay [23] relates to Pseudomonas aeruginosa U-31.
Assay [24] deals with Staphylococcus aureus FDA 209P.
Assay [25] relates to Aspergillus fumigatus IOC 4526.
Assay [26] concerns Candida albicans ATCC 36802.
In assay [27] the test system is Candida albicans IOC 4558.
Assay [28] concerns Candida glabrata IOC 4565.
Assay [29] relates to Candida parapsilosis IOC 4564.
Assay [30] relates to Candida tropicalis IOC 4560.
The test system of assay [31] is Cryptococcus neoformans ATCC 90112.
For assay [32], the system named is Cryptococcus neoformans IOC 4528.
The subject of assay [33] is Pseudomonas aeruginosa ATCC 27853.
For assay [34], the system named is Staphylococcus aureus ATCC 29213.
The test system of assay [35] is Trichophyton rubrum IOC 4527.
Assay [36] deals with Trichosporon sp. IOC 4569.
Assay [37] has as its system Micrococcus luteus NBRC 12708.

One may read the MIC as the least concentration at which growth counts as inhibited. In the case of `CC[C@H](C)[C@H](NC(=O)[C@H](C)N)C(=O)N[C@@H](Cc1ccccc1)C(=O)N[C@H](C(=O)N[C@@H](Cc1ccccc1)C(=O)N[C@H](C(=O)N[C@@H](CCCN=C(N)N)C(=O)N[C@@H](Cc1c[nH]c2ccccc12)C(=O)N[C@@H](CC(C)C)C(=O)N[C@@H](CC(C)C)C(=O)N[C@@H](CCCCN)C(=O)N[C@@H](CC(C)C)C(=O)NCC(=O)N[C@@H](Cc1cnc[nH]1)C(=O)N[C@@H](Cc1cnc[nH]1)C(=O)NCC(=O)N[C@@H](CCCN=C(N)N)C(=O)N[C@@H](C)C(=O)N1CCC[C@H]1C(=O)N1CCC[C@H]1C(=O)O)[C@@H](C)CC)[C@@H](C)CC` [AIFIFIRWLLKLGHHGRAPP], the MIC in assay [1] was 4 µM (≈ 9.37 µg/mL); in [2], 8 µM (≈ 18.7 µg/mL); in assay [3], ≥ 128 µM; in assay [4], ≥ 128 µM; in assay [5], ≥ 128 µM; in [6], ≥ 128 µM. Further, the minimal inhibitory concentration (MIC) in [7] is ≥ 128 µM; in assay [8], ≥ 128 µM; in assay [9], 2 µM (≈ 4.69 µg/mL); in assay [10] it was 16 µM (≈ 37.5 µg/mL).

As to `CC[C@H](C)[C@H](NC(=O)CNC(=O)[C@H](CCCCN)NC(=O)[C@H](CC(C)C)NC(=O)[C@H](CCSC)NC(=O)[C@H](CC(N)=O)NC(=O)[C@H](CCCCN)NC(=O)[C@H](Cc1c[nH]c2ccccc12)NC(=O)[C@H](CC(C)C)NC(=O)[C@H](C)N)C(=O)NCC(=O)N[C@@H](CCCCN)C(=O)N[C@@H](CC(C)C)C(=O)N[C@@H](C)C(=O)NCC(N)=O` [ALWKNMLKGIGKLAG], the MIC in [11] is 3 µM (≈ 4.8 µg/mL); in [12] it was 20 µM (≈ 32 µg/mL); in assay [13], ≥ 40 µM; in [14], 20 µM (≈ 32 µg/mL); in assay [15], 3 µM (≈ 4.8 µg/mL); in assay [16] it was 3 µM (≈ 4.8 µg/mL). Besides, the MIC was 3 µM (≈ 4.8 µg/mL) in the assay on Escherichia coli IP76-24; ≥ 150 µM in [17]; 10 µM (≈ 16 µg/mL) in assay [18]; ≥ 150 µM in [19]; 30 µM (≈ 48 µg/mL) in [20].

In the case of `CC(C)C[C@H](NC(=O)[C@H](CC(C)C)NC(=O)[C@H](CCCCN)NC(=O)[C@H](CC(C)C)NC(=O)[C@H](CC(C)C)NC(=O)[C@H](CCCCN)NC(=O)[C@H](CCCCN)NC(=O)[C@H](Cc1c[nH]c2ccccc12)NC(=O)[C@H](CC(C)C)NC(=O)[C@H](CCCCN)NC(=O)[C@H](CC(C)C)NC(=O)[C@H](CC(C)C)NC(=O)[C@H](CC(C)C)NC(=O)[C@H](CCCCN)NC(=O)[C@H](CC(C)C)NC(=O)[C@H](CC(C)C)NC(=O)[C@@H](N)CCCCN)C(=O)N[C@@H](CCCCN)C(=O)O` [KLLKLLLKLWKKLLKLLK], the MIC in [21], in assay [22], in assay [23] and in assay [24] was ≥ 44.8 µM each time.

As for `CSCC[C@H](NC(=O)[C@@H](N)CCCCN)C(=O)N[C@@H](CC(=O)O)C(=O)N[C@@H](CO)C(=O)N[C@@H](CCCN=C(N)N)C(=O)N[C@@H](Cc1c[nH]c2ccccc12)C(=O)N[C@@H](CCCN=C(N)N)C(=O)N[C@@H](Cc1c[nH]c2ccccc12)C(=O)N[C@@H](CCCCN)C(=O)N[C@@H](CO)C(=O)N[C@@H](CO)C(=O)N[C@@H](CCCCN)C(=O)N[C@@H](CCCCN)C(=O)O` [KMDSRWRWKSSKK], the MIC in assay [25] is ≥ 58 µM; in assay [26] it was ≥ 58 µM; in assay [27] it was ≥ 46.4 µM; in assay [28], ≥ 46.4 µM; against Candida krusei IOC 4559 it was ≥ 32.8 µM; in assay [29], ≥ 46.4 µM. Besides, the MIC is ≥ 46.4 µM in assay [30]; 4.92 µM (≈ 8.49 µg/mL) in [31]; 4.92 µM (≈ 8.49 µg/mL) in [32]; ≥ 46.4 µM against Escherichia coli SBS 363; 4.92 µM (≈ 8.49 µg/mL) against Micrococcus luteus A270; 16.4 µM (≈ 28.3 µg/mL) in assay [33]. The MIC was > 23.2 µM in [34], ≥ 58 µM in [35] and ≥ 32.8 µM in assay [36].

Turning to `CC[C@H](C)[C@@H]1NC(=O)[C@H](C)NC(=O)[C@H](CC(C)C)NC(=O)[C@@H]2CSSC[C@@H](C(=O)N[C@@H](CCCN=C(N)N)C(=O)N[C@@H](CCCN=C(N)N)C(=O)O)NC(=O)[C@H](C(C)C)NC(=O)[C@@H]3CSSC[C@H](NC(=O)[C@H](CC(C)C)NC(=O)[C@H](CO)NC(=O)[C@H](Cc4cnc[nH]4)NC(=O)[C@H](CC(N)=O)NC(=O)[C@H](C)NC(=O)[C@H](C)NC(=O)[C@H](Cc4ccccc4)NC(=O)CNC(=O)[C@H](CCCCN)NC(=O)[C@H](C)NC(=O)[C@H](CCC(=O)O)NC(=O)[C@H](Cc4ccccc4)NC(=O)[C@H](CO)NC(=O)[C@H](CC(C)C)NC(=O)[C@H](CC(C)C)NC(=O)[C@H](CC(=O)O)NC(=O)[C@@H](NC(=O)[C@@H](NC(=O)[C@@H](N)CC(C)C)[C@@H](C)O)CSSC[C@H](NC(=O)[C@H](C)NC(=O)CNC(=O)CNC(=O)[C@H](CCCCN)NC(=O)[C@H](CCCN=C(N)N)NC(=O)CNC1=O)C(=O)N[C@@H](CCC(N)=O)C(=O)N[C@@H](CC(N)=O)C(=O)NCC(=O)N[C@@H](C(C)C)C(=O)N3)C(=O)N[C@@H](C)C(=O)N[C@@H](C)C(=O)N[C@@H](Cc1cnc[nH]1)C(=O)N2` [LTCDLLSFEAKGFAANHSLCAAHCLAIGRKGGACQNGVCVCRR], the MIC in [37] is 1.12 µM; in assay [9], 0.112 µM.

For `CSCC[C@H](N)C(=O)N[C@@H](C)C(=O)N[C@@H](C)C(=O)N[C@@H](CCCN=C(N)N)C(=O)N[C@@H](C)C(=O)N[C@@H](C)C(=O)N[C@@H](CCCN=C(N)N)C(=O)N[C@@H](CC(C)C)C(=O)N[C@@H](C)C(=O)N[C@@H](C)C(=O)N[C@@H](CCCN=C(N)N)C(=O)N[C@@H](CC(C)C)C(=O)N[C@@H](C)C(=O)N[C@@H](CCCN=C(N)N)C(=O)N[C@@H](CC(C)C)C(=O)N[C@@H](C)C(=O)N[C@@H](CC(C)C)C(=O)N[C@@H](CCCN=C(N)N)C(=O)N[C@@H](C)C(=O)N[C@@H](CC(C)C)C(=O)O` [MAARAARLAARLARLALRAL], the minimum inhibitory concentration (MIC) worked out at 0.0025 µM (≈ 0.00534 µg/mL) against Carnobacterium mobile and 0.1 µM (≈ 0.214 µg/mL) against Fusarium oxysporum.

The values are drawn from DBAASP.
